Data on 2 compounds can be found in US7074769B2, “Oligonucleotide inhibitors of bcl-xL” (The Trustees of Columbia University in the City of New York, priority 1998, dated 2006).

The subject of the experiment is bcl-xL transfected LNCaP cells. Kind of experiment: Drug treatment of bcl-xL transfected and parental LNCaP cells. The format is cell-based, human. The following applies: for apoptosis induction: parental LNCaP cells or neomycin-expressing control-transfected LNCaP cells; for concentration up to which bcl-xL overexpressing LNCaP clones were resistant: treatment for 24 h. The procedure:
LNCaP cells transfected with the neomycin-selectable pSFFV/bcl-xL plasmid or with a control, neomycin-resistant expression vector pSFFV. Aliquots containing 10 μg of plasmid and 5 μg of lipofectin reagent (Life technologies, Inc., Gaithersburg, Md.) in serum-free OPTI-MEM (Life Technologies, Inc.) were added to cultured cells. The transfection media was replaced 4 h later with RPMI-10% FBS medium. Individual colonies were selected from these plates after approximately 3–4 weeks of routine maintenance in RPMI-10% FBS containing 0.6 mg/ml G418 sulfate (Geneticin, Life Technologies, Inc.). The bcl-xL-transformed LNCaP cells were cultured in RPMI-10% FBS, supplemented with 0.3 mg/ml G418 sulfate in 5% CO2 atmosphere.
Two clones of LNCaP cells overexpressing bcl-xL protein (1072-4 and 1072-5) have been obtained after transfection of wild type LNCaP cells with the plasmid vector pSFFV/bcl-xL and lipofectin. Also a mock transfectant clone of LNCaP cells carrying neo® resistance gene (1072-3) was used for the control experiments. […] Western blot analysis for bcl-xL protein was performed as described above. […] For the Northern blot analysis, the total RNA was isolated from the cells using TRIZOL reagent (GIBCO BRL), and 20 μg aliquotes were separated in RNA-formaldehyde gel, blotted onto nylon membranes (Schleicher & Schull), UV-linked and prehybridized for two hours at 42° C. in the standard hybridization solution. Then the blot was hybridized overnight with the PCR-amplified fragment of human bcl-xL cDNA at 42° C. Dcl-xL coding fragment was amplified from pSFFV/bcl-xL plasmid using bcl-x specific primers. The primer sequences were: bcl-x-upstream, 5′-[…]-3′ (SEQ ID NO:36); and bcl-x-downstream, 5′-[…]-3′ (SEQ ID NO:37). Twenty five cycles of amplification were performed in DNA Thermal Cycler (Perkin-Elmer, Norwalk, Conn.) at 94° C. (30 sec), 55° C. (30 sec), and 72° C. (30 sec). The PCR products were analysed on a 1.2% agarose gel. The resultant fragment was labeled by random primer method to the specific activity 10^7 cpm/ng of the probe and used for the hybridization. After washings blots were autoradiographed for 24h at −80° C. Blots were stripped of radioactivity and reprobed with a ^32P-labeled G3PDH probe to confirm the equal loading.
Clonal derivatives of bcl-xL transfected LNCaP cells that were overexpressing high amounts of bcl-xL protein were resistant to taxol (up to 100 nM) and mitoxantrone (up to 4 μM) treatment for 24 h. […] This finding strongly supports the hypothesis that bcl-xL gene product is a factor in the development of chemotherapy resistance in hormone-refractory prostate cancer.

As to `O=C1c2c(O)ccc(O)c2C(=O)c2c(NCCNCCO)ccc(NCCNCCO)c21` [mitoxantrone], the apoptosis induction entry is recorded as “induce apoptosis” and the “concentration up to which bcl-xL overexpressing LNCaP clones were resistant” value is “up to 4 μM”.

As to `CC(=O)O[C@H]1C(=O)[C@@]2(C)[C@H]([C@H](OC(=O)c3ccccc3)[C@]3(O)C[C@H](OC(=O)[C@H](O)[C@@H](NC(=O)c4ccccc4)c4ccccc4)C(C)=C1C3(C)C)[C@]1(OC(C)=O)CO[C@@H]1C[C@@H]2O` [taxol], the apoptosis induction result is reported as “induce apoptosis” and the “concentration up to which bcl-xL overexpressing LNCaP clones were resistant” value is on record as “up to 100 nM”.
